Consider 1 molecule from US8258173B2, “Melatonin derivatives and their use as antioxidants” (University of Sunderland, priority 2006, dated 2012).

For test [1], the system named is HPV-16 immortalized human keratinocyte cell line. Nature of the test: Cell line test (MTT), keratinocyte proliferation. The settings on record: HPV-16 immortalized human keratinocytes, 3 days incubation; read-out: MTT assay IG50. Type of test: cell-based. The source says:
3-[4′,5′-Dimethylthiazol-2′-yl]-2,5-diphenyltetrazolium bromide (MTT), dimethyl sulphoxide (DMSO), isopropranol, foetal calf serum, and trypan blue were purchased from Sigma-Aldrich. Trypsin 250 was purchased from DIFCO. Ethylenediaminetetraacetic acid (EDTA), glucose, sodium phenol red, sodium chloride, potassium chloride, sodium hydrogen carbonate, potassium dihydrogen phosphate, and disodium hydrogen phosphate were purchased from BDH. Keratinocyte-SFM was purchased from GIBCO. For spectroscopic measurements, MRX Microplate Reader was used, which was controlled by Revelation Version 3.04.
The following solutions were prepared for use in the cell line test (MTT). • 1. Sodium chloride (8 g), potassium chloride (0.2 g), disodium hydrogen phosphate (1.15 g) and potassium dihydrogen phosphate (0.2 g) were dissolved in deionized water (1 L). This PBS solution was warmed to 37° C. at the time of use. • 2. Trypsin 250 (2.5 g), EDTA (0.2 g), glucose (1.0 g), potassium chloride (0.4 g), sodium chloride (8.0 g), sodium phenol red (0.002 g), and sodium hydrogen carbonate (0.58 g) were dissolved in deionized water (1 L). This solution was warmed to 37° C. at the time of use. • 3. Trypsin inhibitor solution was created by using feotal calf (1 ml) and was diluted in 100 ml of PBS. • 4. MTT powder (0.125 g) was dissolved in PBS buffer (25 ml) to give 5 mg/ml of MTT stock solution, which was stored at −20° C. and wrapped in foil to protect from light to create MTT stock solution. • 5. MTT stock solution was defrosted and diluted 1 in 10 in PBS buffer to give 0.5 mg/ml of working solution, which was prepared at the time of use to create an MTT working solution. • 5. Trypan blue solution was created by dissolving Trypan blue (0.04 g) in deionized water (10 ml).
The cell culture consisted of an HPV-16 immortalized human keratinocyte cell line from American Type Culture Collection (ATCC).
Cells were cultured in Serum-Free Keratinocyte Medium (Keratinocyte-SFM) supplemented with recombinant epidermal growth factor (rEGF) and bovine pituitary extract (BPE) in a T-75 flask under conditions of 5% C02 at 37° C. Fluid in the flask was changed with fresh complete medium every 3 days.
When cells grew to 60-80% confluence as determined under a microscope, the flask was washed with PBS. Small amount of trypsin-EDTA solution (1-2 ml) was added to the flask and incubated for 5 minutes at 37° C. When approximately 90% of the cells were dislodged, trypsin inhibitor solution (10 ml) was added to stop trypsin reaction. The cells were spun at 500 rpm for 10 minutes at room temperature. The cell pellet was gently resuspended in 10 ml of media. The basal cells were counted with a haemocytometer by adding trypan blue solution to determine viable cells. The cells were adjusted the density to 1×10^5 cells/mL in media.
A stock solution of each compound was prepared by dissolving compound (20 mg) in DMSO (1 ml), to give 20 mg/mL of stock solution.
A working solution was prepared by diluting a stock solution (20 μl) into media (1.98 ml) to give 200 μg/mL of working solution.
The following steps were performed to carry out the MMT experiment. 100 μl of resuspended cell suspension was added to test wells in 96-well plate, omitting column 11. Media was aspirated from each well after plate was incubated for 24 hours at 37° C., 5% CO2, then wells were washed with PBS. 100 μl of media containing 1% DMSO was added to each test well, omitting column 2. 200 μl of working solution of compound was added to each the wells, B2 to G2. 100 μl of solution was transferred to perform serial dilutions across the plate from column 2 up to column 9, and 100 μl of solution was discard from column 9. The plate was incubated for 3 days at 37° C., 5% C02. Media was removed, and wells were washed with PBS. Then 200 μl of MTT working solution was added to each well. After the plate was incubated for 2 hours at 37° C., MTT solution was removed and wells were washed with PBS. […]
A general note: Tetrazolium assays rely on reduction of a dye to a coloured formazan, in cell work by metabolically active cells.

Test [2] relates to lipid peroxidation in bovine brain extract liposomes (hydroxyl radicals). The test is described as follows: Antioxidant test, TBA assay (lipid peroxidation). Particulars: brain extract liposomes, FeCl3/ascorbic acid, 37° C. 30 min, absorbance 532 nm. The class given is biochemical. How it is done: Ascorbic acid and propylgallate were purchased from Aldrich. N-Butanol and ethanol were purchased from BDH. Butylated hydroxytoluene (BHT), bovine brain extract, FeCl3, thiobarbituric acid (TBA) and PBS (phosphate buffered saline) tablets were purchased from Sigma. For spectroscopic measurements, a UNICAM UVNIS Spectrometer (UV2) was used. A well-controlled water bath was utilized for incubating the test system at the required temperatures. Plastic falcon tubes were used to accommodate the assay. Accurate pipettes were used to dispense the reagents.
The following liposomes and reagents were prepared in order to carry out the experiments. • 1. Brain extract (50 mg) was weighed into a clean universal container. About 7 glass balls and 10 cm^3 of PBS were added. The mixture was sonicated in an ice-water bath until the lipid was suspended and the suspension was homogeneous and milky in appearance. The suspension was kept cool during the sonication, although care was taken not to overfill the bath with ice as the sonication becomes relatively ineffective. • 2. Ascorbic acid (0.0176 g) was dissolved in deionised water and diluted in 100 cm^3 of volumetric flask. • 3. Ferric chloride hexahydrate (0.0270 g) was dissolved in deionized water and diluted in 100 cm^3 of volumetric flask. • 4. Sodium hydroxide (1 g) was dissolved in 500 cm^3 of deionized water. • 5. Phosphate buffered saline was prepared (PBS, pH=7.4). • 6. HCl (338 cm^3, 37%) was diluted with 162 cm^3 deionized water to give 500 cm^3 of 25% HCl. • 7. BHT (5 g) was dissolved in 250 cm^3 ethanol. • 8. TBA (5 g) was added to 500 cm^3, 50 mM NaOH, and the solution was heated with stirring to dissolve all the TBA. • 9. PG (0.1061 g) was dissolved in 500 cm^3 deionized water. • 10. A stock solution of test compound at 10 mg/cm^3 was prepared, the concentration depended on the estimated activity of the substance, and serial dilutions were made to obtain 5.0, 2.5, 1.25, 0.625, 0.3125 and 0.15625 mg/cm^3. The stock solution and these six dilutions were screened in the lipid peroxidation—TEA test, in attempt to obtain a dose response curve for antioxidant efficacy against concentration for the substance.
Sixty-eight centrifuge tubes were numbered. • 1. Test substance (0.1 cm^3) was added to tubes; 10 mg/cm^3 to No. 13-20 of tubes, 5 mg/cm^3 to No. 21-28, 2.5 mg/cm^3 to No. 29-36, 1.25 mg/cm^3 to No. 37-44, 0.625 mg/cm^3 to No. 45-52, 0.3125 mg/cm^3 to No. 53-60, 0.15625 mg/cm^3 to No. 61-68. • 2. PG (0.1 cm^3) was added to 9-12. • 3. Ethanol (0.1 cm^3) was added to No. 5-8. • 4. Deionized water (0.3 cm^3) was added to No. 1-4, deionized water (0.4 cm^3) was added to No. 17-20, 25-28, 33-36, 41-44, 49-52, 57-60, and 65-68. • 5. Liposome (0.2 cm^3) was added to No. 1-4, 5-8, 9-12, 13-16, 21-24, 29-32, 37-40, 45-48, 53-56 and 61-64. • 6. PBS (0.5 cm^3) was added to all tubes. • 7. Ferric chloride (0.1 cm^3, 1 mM) was added to No. 5-8, 9-12, 13-16, 21-24, 29-32, 37-40, 45-48, 53-56, and 61-64. • 8. Ascorbic acid (0.1 cm^3, 1 mM) was added to No. 5-8, 9-12, 13-16, 21-24, 29-32, 37-40, 45-48, 53-56 and 61-64. • 9. The tubes were incubated at 37° C. for 30 min. • 10. BHT (0.1 cm^3, 2%), TBA (0.5 cm^3, 1%) and HCl (0.5 cm^3, 25%) were added to all tubes. • 11. The tubes were heated at 85-90° C. for […]. • 12. The tubes were removed from heater and cooled. • 13. N-Butanol (2.5 cm^3) was added to all tubes. The tubes were then shaken to mix and spun at 3500 rpm at room temperature for 10 min. • 14. N-Butanol (2.5 cm^3) was removed and placed in cuvettes. • 15. Absorbance at 532 nm on a spectrophotometer was recorded, using n-butanol as blank. • 16. The mean and standard deviation were calculated. The % inhibition was calculated using equation (1).
[formula] • All data are expressed and mean±SEM (n=4). % inhibition was used to construct the graph and calculate IC50.

On to `COc1ccc(N)c(C(=O)CCNC(C)=O)c1` [AMK, reference compound], for which the IC50 in test [1] came to 408 µM; in test [2], 280 µM.
